{"source": "patent US20040214799A1", "about": "“Cancerous metastasis inhibitors containing carbacyclic phosphatidic acid derivatives” (priority 2001, published 2004)", "tested_on": "Mouse malignant melanoma B16-F0", "experiment": "B16 melanoma hematogenous lung metastasis model; on Metastatic nodules, Abdominal cavity Adipose tissue: key: −: Absent; +: Present; on Metastatic nodules, Abdominal cavity Adrenal gland: key: −: Absent; +: Present; on Metastatic nodules, Abdominal cavity Diaphragm: key: −: Absent; +: Present; on Metastatic nodules, Abdominal cavity Kidney: key: −: Absent; +: Present; on Metastatic nodules, Abdominal cavity Ovary: key: −: Absent; +: Present; on Metastatic nodules, Abdominal cavity Spleen: key: −: Absent; +: Present; on Metastatic nodules, Thoracic cavity: key: −: Absent; +: Present; on Metastatic nodules, Tissue around glandual clitoris: key: −: Absent; +: Present", "format": "in vivo", "conditions": "for invasion of lymphocytes into metastatic lesions observed in cases: animals with metastatic lesions; for Metastatic nodules, Abdominal cavity Adipose tissue / Metastatic nodules, Abdominal cavity Adrenal gland / Metastatic nodules, Abdominal cavity Diaphragm / Metastatic nodules, Abdominal cavity Kidney / Metastatic nodules, Abdominal cavity Ovary / Metastatic nodules, Abdominal cavity Spleen / Metastatic nodules, Thoracic cavity / Metastatic nodules, Tissue around glandual clitoris: autopsy day 14, individual animals; for Number of lung tumor nodules, Range (mininum-maximum) / Number of mice having lung tumor nodules: day 14, N 6; for Number of lung tumor nodules: day 14, mean ± S.D.; for Number of lung tumor nodules / Number of mice having metastatic lesions: N 6; for Number of mice having metastatic lesions / Findings: Invasion of lymphocytes into melanoma metastatic lesion: lung histopathology; for Findings: Invasion of lymphocytes into melanoma metastatic lesion: individual animals; for Number of metastatic lesions per section, Large size: major diameter 0.65 mm ≦ and <1.3 mm; for Number of metastatic lesions per section, Large size / Number of metastatic lesions per section, Small size / Number of metastatic lesions per section, Total: mean ± S.D.; for Number of metastatic lesions per section, Small size: major diameter <0.65 mm, left lobe and posterior lobe", "procedure": "cPA-19 and cPA-20 were used as test substances. 0.1 w/v % BSA/PBS which was prepared by dissolving Albumin, Bovine [essentially Fatty Acid Free] (BSA, Lot No. 89H7604, Sigma chemical company) in Ca^2+ and Mg^2+ free PBS (pH 7.2), was used as a medium After preparation, the solution was sterilized by filtration using a filter (0.22 μm, Millipore). Preparation was performed when used. cPA-5 was used as a positive control substance.\nA medium was added in a volume required for a test substance or a positive control substance. Dissolution was performed by ultrasonication, thereby preparing a 0.16 mg/mL solution. The 0.16 mg/mL solution containing a test substance was diluted with a medium, thereby preparing 0.08 and 0.02 mg/mL solutions. All mixtures were prepared when used.\nMice were purchased from CHARLES RIVER JAPAN. INC. The line employed herein was C57BL/6NCrj (sexuality: female). The number of animals kept in stock was 60, and the age of these animals when kept in stock was 4 weeks. […] The environmental conditions for the test system were as follows:\nMouse malignant melanoma B16-F0 was used as a tumor cell. The cell was purchased from Dainippon Pharmaceutical Co., Ltd.\nDulbecco's Modified Eagle's Media containing 10% feral bovine serum and kanamycin were used for culture. […] A medium was added to stop the action of trypsin while pipetting, thereby preparing a cell suspension. The suspension was diluted by one-tenth with a medium for culturing, followed by subculturing until it reached a volume sufficient for grafting.\nA cell suspension was prepared by the same technique as the subculture method. Specifically, the cells were washed with a Ca^2+ and Mg^2+ free phosphate buffer [PBS(−)], and then harvested. The harvested cells were suspended in a 10 mL of PBS(−), thereby preparing a cell suspension. The number of cells in the cell suspension was measured to obtain the total cell number. 50 μL of the cell suspension, 100 μL of 0.4% trypan blue liquid and 100 μL of PBS(−) were mixed, and then viable count was measured. The survival rate of the cells was calculated from the viable count and total cell number.\nBased on the body weight on the day of the administration of the test substance, mice were grouped into 8 test groups according to the stratified continuous randomization method as shown in Table 2 below.\nThe mixture was administered via the caudal vein. The number of grafted cells was 5×10^5 cells/body. The dose of the test substance was 0.001, 0.004 or 0.008 mg/body, and the dose of the positive control substance was 0.008 mg/body.\nOn day 14 after the administration of the test substance, blood was collected from the posterior portion of the abdominal vena cava under isoflurane anesthesia. After the mice were sacrificed by blood-letting, the presence or absence of intrapleural and intraperitoneal metastatic nodules was confirmed. Lungs were extracted, and then fixed with a 10% neutral buffered formalin solution. The number of nodules resulting from lung metastasis was measured under a stereoscopic microscope (magnification: 10 times).\nAfter the measurement of the number of nodules resulting from lung metastasis, samples were paraffin-embedded, and then thin sections were prepared. Hematoxylin eosinic-stained samples were prepared from these sections. The number of metastatic lesions in the certain portions of the left lobe and the posterior lobe was measured, and then the lesions were sorted by size. On the basis of the diameter (0.65 mm) of an object lens (×40), metastatic lesions with major diameters of less than 0.65 mm were classified as having a small size, and those with major diameters of between 0.65 mm or more and less than 1.30 mm were classified as having a large size. Furthermore, the degree of invasion of lymphocytes into metastatic lesions was confirmed qualitatively.\nThe representative value of each test group was denoted as mean±standard deviation (mean±S.D.). Differences in mean values were examined as follows.", "key": {"[1]": {"conditions": "0.001 mg/body i.v., autopsy, 6 mice"}, "[2]": {"conditions": "0.004 mg/body i.v., autopsy, 6 mice"}, "[3]": {"conditions": "0.008 mg/body i.v., autopsy, 6 mice"}}, "note": "Several values for one entry are separate records, joined by “and”; a condition that tells them apart may be missing. Identical values can stand only once.", "data": [{"substance": "carba-Ole-cPA [cPA-19]", "values": [{"measurement": "invasion of lymphocytes into metastatic lesions observed in cases", "setting": "0.001 mg/body i.v.", "value": "1 out of 6"}, {"measurement": "Metastatic nodules, Abdominal cavity Adipose tissue", "setting": "0.001 mg/body i.v.", "value": "+ and − (5×)"}, {"measurement": "Metastatic nodules, Abdominal cavity Adrenal gland", "setting": "0.001 mg/body i.v.", "value": "+ and − (5×)"}, {"measurement": "Metastatic nodules, Abdominal cavity Diaphragm", "setting": "0.001 mg/body i.v.", "value": "−"}, {"measurement": "Metastatic nodules, Abdominal cavity Kidney", "setting": "0.001 mg/body i.v.", "value": "+ (2×) and − (4×)"}, {"measurement": "Metastatic nodules, Abdominal cavity Ovary", "setting": "0.001 mg/body i.v.", "value": "+ (2×) and − (4×)"}, {"measurement": "Metastatic nodules, Abdominal cavity Spleen", "setting": "0.001 mg/body i.v.", "value": "− (5×) and +"}, {"measurement": "Metastatic nodules, Thoracic cavity", "setting": "0.001 mg/body i.v.", "value": "− (5×) and +"}, {"measurement": "Metastatic nodules, Tissue around glandual clitoris", "setting": "0.001 mg/body i.v.", "value": "−"}, {"measurement": "cases with metastatic nodules in adipose tissue", "setting": "[1]", "value": 1, "unit": "case"}, {"measurement": "cases with metastatic nodules in the adrenal gland", "setting": "[1]", "value": 1, "unit": "case"}, {"measurement": "cases with metastatic nodules in the kidney", "setting": "[1]", "value": 2, "unit": "cases"}, {"measurement": "cases with metastatic nodules in the ovary", "setting": "[1]", "value": 2, "unit": "cases"}, {"measurement": "cases with metastatic nodules in the spleen", "setting": "[1]", "value": 1, "unit": "case"}, {"measurement": "cases with metastatic nodules in the thoracic cavity", "setting": "[1]", "value": 1, "unit": "case"}, {"measurement": "Number of lung tumor nodules, Range (mininum-maximum)", "setting": "0.001 mg/body i.v.", "value": "37-66"}, {"measurement": "Number of mice having lung tumor nodules", "setting": "0.001 mg/body i.v.", "value": 6}, {"measurement": "Number of lung tumor nodules", "setting": "0.001 mg/body i.v.", "value": "54 ± 12"}, {"measurement": "Number of mice having metastatic lesions", "setting": "0.001 mg/body i.v.", "value": 6}, {"measurement": "Findings: Invasion of lymphocytes into melanoma metastatic lesion", "setting": "0.001 mg/body i.v.", "value": "− (5×) and +"}, {"measurement": "Number of metastatic lesions per section, Large size", "setting": "0.001 mg/body i.v.", "value": "0.7 ± 0.8"}, {"measurement": "Number of metastatic lesions per section, Small size", "setting": "0.001 mg/body i.v.", "value": "3.0 ± 1.3"}, {"measurement": "Number of metastatic lesions per section, Total", "setting": "0.001 mg/body i.v.", "value": "3.7 ± 1.8"}, {"measurement": "number of metastatic nodules of B16-F0 in the lungs versus medium group (in words)", "setting": "0.004 mg/body i.v.", "value": "significant decrease in the number of metastatic nodules"}, {"measurement": "invasion of lymphocytes into metastatic lesions observed in cases", "setting": "0.004 mg/body i.v.", "value": "no invasions were observed in 2 cases"}, {"measurement": "Metastatic nodules, Abdominal cavity Adipose tissue", "setting": "0.004 mg/body i.v.", "value": "− (5×) and +"}, {"measurement": "Metastatic nodules, Abdominal cavity Adrenal gland", "setting": "0.004 mg/body i.v.", "value": "− (5×) and +"}, {"measurement": "Metastatic nodules, Abdominal cavity Diaphragm", "setting": "0.004 mg/body i.v.", "value": "−"}, {"measurement": "Metastatic nodules, Abdominal cavity Kidney", "setting": "0.004 mg/body i.v.", "value": "−"}, {"measurement": "Metastatic nodules, Abdominal cavity Ovary", "setting": "0.004 mg/body i.v.", "value": "−"}, {"measurement": "Metastatic nodules, Abdominal cavity Spleen", "setting": "0.004 mg/body i.v.", "value": "+ and − (5×)"}, {"measurement": "Metastatic nodules, Thoracic cavity", "setting": "0.004 mg/body i.v.", "value": "−"}, {"measurement": "Metastatic nodules, Tissue around glandual clitoris", "setting": "0.004 mg/body i.v.", "value": "−"}, {"measurement": "cases with metastatic nodules in adipose tissue", "setting": "[2]", "value": 1, "unit": "case"}, {"measurement": "cases with metastatic nodules in the adrenal gland", "setting": "[2]", "value": 1, "unit": "case"}, {"measurement": "cases with metastatic nodules in the spleen", "setting": "[2]", "value": 1, "unit": "case"}, {"measurement": "metastatic nodules in the thoracic cavity", "setting": "[2]", "value": "no metastatic nodules were observed"}, {"measurement": "Number of lung tumor nodules, Range (mininum-maximum)", "setting": "0.004 mg/body i.v.", "value": "2-6"}, {"measurement": "Number of mice having lung tumor nodules", "setting": "0.004 mg/body i.v.", "value": 6}, {"measurement": "Number of lung tumor nodules", "setting": "0.004 mg/body i.v.", "value": "4 ± 2"}, {"measurement": "Number of mice having metastatic lesions", "setting": "0.004 mg/body i.v.", "value": "2 &"}, {"measurement": "Findings: Invasion of lymphocytes into melanoma metastatic lesion", "setting": "0.004 mg/body i.v.", "value": "−"}, {"measurement": "Number of metastatic lesions per section, Large size", "setting": "0.004 mg/body i.v.", "value": "0 ± 0!!"}, {"measurement": "Number of metastatic lesions per section, Small size", "setting": "0.004 mg/body i.v.", "value": "0.3 ± 0.5"}, {"measurement": "Number of metastatic lesions per section, Total", "setting": "0.004 mg/body i.v.", "value": "0.3 ± 0.5!"}, {"measurement": "metastasis / number of metastatic nodules in the lungs versus medium group (in words)", "setting": "0.008 mg/body i.v.", "value": "almost completely suppressed metastasis"}, {"measurement": "Metastatic nodules, Abdominal cavity Adipose tissue", "setting": "0.008 mg/body i.v.", "value": "−"}, {"measurement": "Metastatic nodules, Abdominal cavity Adrenal gland", "setting": "0.008 mg/body i.v.", "value": "−"}, {"measurement": "Metastatic nodules, Abdominal cavity Diaphragm", "setting": "0.008 mg/body i.v.", "value": "−"}, {"measurement": "Metastatic nodules, Abdominal cavity Kidney", "setting": "0.008 mg/body i.v.", "value": "−"}, {"measurement": "Metastatic nodules, Abdominal cavity Ovary", "setting": "0.008 mg/body i.v.", "value": "−"}, {"measurement": "Metastatic nodules, Abdominal cavity Spleen", "setting": "0.008 mg/body i.v.", "value": "− (5×) and +"}, {"measurement": "Metastatic nodules, Thoracic cavity", "setting": "0.008 mg/body i.v.", "value": "−"}, {"measurement": "Metastatic nodules, Tissue around glandual clitoris", "setting": "0.008 mg/body i.v.", "value": "−"}, {"measurement": "cases with metastatic nodules in the spleen", "setting": "[3]", "value": 1, "unit": "case"}, {"measurement": "metastatic nodules in the thoracic cavity", "setting": "[3]", "value": "no metastatic nodules were observed"}, {"measurement": "Number of lung tumor nodules, Range (mininum-maximum)", "setting": "0.008 mg/body i.v.", "value": 0}, {"measurement": "Number of mice having lung tumor nodules", "setting": "0.008 mg/body i.v.", "value": "0 &&"}, {"measurement": "Number of lung tumor nodules", "setting": "0.008 mg/body i.v.", "value": "0 ± 0"}, {"measurement": "Number of mice having metastatic lesions", "setting": "0.008 mg/body i.v.", "value": "0 &&"}, {"measurement": "Number of metastatic lesions per section, Large size", "setting": "0.008 mg/body i.v.", "value": "0 ± 0!!"}, {"measurement": "Number of metastatic lesions per section, Small size", "setting": "0.008 mg/body i.v.", "value": "0 ± 0!"}, {"measurement": "Number of metastatic lesions per section, Total", "setting": "0.008 mg/body i.v.", "value": "0 ± 0!!"}, {"measurement": "number of mice having intrapleural or intraperitoneal metastatic nodules, dose dependence (in words)", "setting": "0.001, 0.004 and 0.008 mg/body i.v.", "value": "decreased as the dose increased"}, {"measurement": "action of suppressing the lung metastasis of B16-F0 compared with cPA-5", "setting": "0.004 and 0.008 mg/body i.v.", "value": "stronger than that of cPA-5"}]}]}
